Measurements as given in patent publication US11583533B2, “Topical pharmaceutical compositions comprising 2-[3-[4-amino-3-(2-fluoro-4-phenoxy-phenyl)-1H-pyrazolo[3,4-d]pyrimidin-1-yl]piperidine-1-carbonyl]-4,4-dimethylpent-2-enenitrile” (Principia Biopharma Inc., priority 2020, dated 2023).

Experiment: Skin penetration of Compound (I) into the dermis and epidermis
Assay type: in vitro ADME
Conditions: human abdominal skin from elective surgery (500±50 μm)
Procedure: Using skin from one donor (n=4-5 replicates per condition) and a receptor solution comprising phosphate/citrate buffer pH 5.6 with 0.01% Brij 98, a dose of 10 mg/cm^2 Compound (I) was applied in the form of one of three 2% Compound (I) gel formulations comprising one of crystalline Form (I), amorphous Compound (I), or crystalline Form (II). Samples were collected every 3 hours for 24 hours. Prior to separating the epidermis and dermis, the residual formulation was removed from the surface of the skin, and then the skin surface was tape stripped up to 5 times to remove residual formulation and the top of the skin surface layers (stratum corneum). The dermis and epidermis were separated by heating to 60° C. for 2 minutes, followed by manual separation using forceps. The extraction fluid used was 90:10 acetonitrile:water with 0.1% BHT. Epidermis and dermis samples were homogenized, then shaken at 130 RPM overnight, and transferred to lo-bind DW96 plates.

CC(C)(C)C=C(C#N)C(=O)N1CCCC(n2nc(-c3ccc(Oc4ccccc4)cc3F)c3c(N)ncnc32)C1 (stereo not shown) [Compound (I), 2-(3-(4-amino-3-(2-fluoro-4-phenoxyphenyl)-1H-pyrazolo[3,4-d]pyrimidin-1-yl)piperidine-1-carbonyl)-4,4-dimethylpent-2-enenitrile]
ability to penetrate skin into the dermis and epidermis: able to penetrate
